From US8722014B2, “1 H-[1, 2, 3] triazole substituted amino acids and uses thereof” (Washington University, priority 2009, dated 2014)
“And” between values parts separate entries of the source, which are not always exact repeats. Equal values may be shown once. Read-outs that look alike come from different tables or passages of the source.

What was measured:
[1] = tested on: subcutaneous 9L gliosarcoma tumors
Procedure: Biodistribution studies were performed with both enantiomers, (R)-[^18F]4 and (S)-[^18F]4, using Fischer 344 rats (Charles River Laboratories, Wilmington Mass., USA) implanted with subcutaneous 9L gliosarcoma tumors. The tumors were implanted by subcutaneous injection of a suspension of approximately 1×10^69L gliosarcoma cells into the flanks of the rats. The tumors were allowed to grow for 3 weeks prior to the study. The rats were allowed food and water ad libitum prior to the biodistribution study. Anesthesia was achieved using a mixture of 1% isoflurane in oxygen, and the radiolabeled amino acid (R)-[^18F]4 or (S)-[^18F]4 was injected intravenously through a tail vein. The animals were euthanized in groups of four for each enantiomer at 5, 30 or 60 minutes after injection. The organs and tissues of interest and the tumors were dissected and weighed, and the amounts of activity were measured and decay corrected to the time of injection with a gamma counter. Standards for the doses were also measured with a gamma counter, and the data were normalized as the percent of total dose per gram of tissue (% ID/g) for each sample. The data were analyzed using GraphPad Prism software with 1-way ANOVAs for each enantiomer at each time point with Bonferroni post-tests. The tumor and brain uptake of radioactivity was directly compared for both enantiomers at each time point with a 2-way ANOVA with Bonferroni post-test. p-values less than or equal to 0.05 were considered statistically significant.

9L gliosarcoma cells = assay: Cell uptake assay in 9L gliosarcoma cells with amino acid transport inhibitors (cluster tray method); type: cell-based; conditions: for percent uptake relative to control, Na ASC: L-Ala/L-Ser/L-Cys 3.3 mM each
Procedure: The 9L gliosarcoma tumor is an established model for human glioblastoma (brain tumor). Cell uptake assays were performed with 9L gliosarcoma cells using both (R)-[^18F]4 and (S)-[^18F]4. 9L gliosarcoma cells were cultured with Earle's minimal essential medium (MEM) augmented with 10% newborn calf serum, 1% 200 mM L-glutamine, 1% MEM vitamin solution and 1% 10 mM non-essential amino acids (NEAA). The cells were passaged every two to three days prior to use with no more than a total of 20 passages. Two to three days before the uptake assays, suspension of 2.5 or 5.0×10^4 cells in culture media were aliquoted into Costar 24 well plates to achieve log growth phase with approximately 70% confluency at the time of the uptake assay (approximately 10^5 cells per well).
Cell uptake assays were performed using the cluster tray method reported in Gazzola et al., Anal. Biochem. 115: 368-374, 1981. Two buffers were used for the assays, a phosphate buffered saline solution and a sodium-free phosphate buffered choline chloride solution. […] The choline buffer was the same as the sodium buffer except choline chloride was substituted for sodium chloride and choline phosphate dibasic was substituted for sodium phosphate dibasic. A 250 mM solution of choline phosphate dibasic was prepared by boiling 95.6 mL of 75% of choline bicarbonate (0.500 mol) and 16.9 mL of 85% aqueous phosphoric acid (0.247 mol) in 750 mL of water for 60 min. The solution was brought to a total volume of 1 liter with water and brought to pH 7.4 with concentrated aqueous hydrochloric acid. The pH of the sodium and choline buffer solutions was adjusted to 7.4 with concentrated aqueous hydrochloric acid prior to use.
A variety of inhibitor conditions were used to determine which amino acid transport system or systems were responsible for cellular uptake of (R)- and (S)-[^18F]-4. The N-methylated amino acid, methylaminoisobutyric acid (MeAIB), is a selective system A substrate and has been used extensively as a competitive inhibitor of system A transport (Shotwell, M. A., et al. Biochem. Biophys. Acta. 737: 267-284, 1983; Christensen, H. N., et al., J. Biol. Chem. 240: 3609-3616, 1965) The bulky neutral amino acid, 2-aminobicyclo-(2,2,1)-heptane-2-carboxylic acid (BCH), has been extensively used as a competitive inhibitor of system L transport, and under sodium-free conditions BCH is a selective system L inhibitor (Palacin, M., et al., Physiol. Rev. 78: 969-1054, 1998. In the presence of sodium, BCH is also an inhibitor of system B^0,+ which is a sodium-dependent amino acid transporter that typically is a minor transport systems in most tissues. A mixture of L-alanine (L-Ala), L-serine (L-Ser) and L-cysteine (L-Cys), (ASC), was used as a non-specific inhibitor condition, and this combination of amino acids is expected to inhibit a broad range of amino acid transport systems including system ASC. Because of the results of initial cell uptake assays described below and the structural relationship of the 1H-1,2,3-triazole group to the imidazole side chain of L-histidine (L-His), additional uptake assays using L-His as well as the basic side chain amino acids L-arginine (L-Arg) and L-lysine (L-Lys) individually and together (RKH) as competitive inhibitors were performed.
The following inhibitors were added to the appropriate sodium or choline buffer: N-methyl aminoisobutyric acid (MeAIB, 10 mM), a mixture of L-alanine/L-serine/L-cysteine (ASC, 3.3 mM of each amino acid), (R,S)-(endo,exo)-2-aminobicyclo(2,2,1)-heptane-2-carboxylic acid (BCH, 10 mM), L-arginine (Arg, 10 mM), L-lysine (Lys, 10 mM), L-histidine (His, 10 mM) and a mixture of Arg/Lys/H is (RKH, 3.3 mM of each amino acid). For control conditions, 10 mM of sucrose was added to maintain consistent osmolality relative to the inhibitor conditions. The pH of each solution of inhibitor in buffer was adjusted as necessary to 7.40 with 3 M aqueous hydrochloric acid prior to use in cell uptake assays. […]

Cl.N[C@H](Cc1cn(CC[18F])nn1)C(=O)O [(R)-[^18F]4, (R)-2-amino-3-[1-(2-fluoroethyl)-1H-[1,2,3]triazol-4-yl]propanoic acid hydrochloride salt-[^18F]]
biodistribution: blood ([1]; 5 min after i.v. injection): 0.90 ± 0.166 % ID/g
biodistribution: bone ([1]; 5 min after i.v. injection): 0.32 ± 0.083 % ID/g
biodistribution: brain ([1]; 5 min after i.v. injection): 0.09 ± 0.015 % ID/g
biodistribution: fat ([1]; 5 min after i.v. injection): 0.10 ± 0.044 % ID/g
biodistribution: heart ([1]; 5 min after i.v. injection): 0.42 ± 0.076 % ID/g
biodistribution: kidney ([1]; 5 min after i.v. injection): 14.01 ± 3.826 % ID/g
biodistribution: large intestine ([1]; 5 min after i.v. injection): 0.15 ± 0.043 % ID/g
biodistribution: liver ([1]; 5 min after i.v. injection): 0.54 ± 0.153 % ID/g
biodistribution: lung ([1]; 5 min after i.v. injection): 0.74 ± 0.143 % ID/g
biodistribution: muscle ([1]; 5 min after i.v. injection): 0.18 ± 0.049 % ID/g
biodistribution: pancreas ([1]; 5 min after i.v. injection): 0.53 ± 0.126 % ID/g
biodistribution: salivary gland ([1]; 5 min after i.v. injection): 0.46 ± 0.083 % ID/g
biodistribution: small intestine ([1]; 5 min after i.v. injection): 0.32 ± 0.079 % ID/g
biodistribution: spleen ([1]; 5 min after i.v. injection): 0.33 ± 0.065 % ID/g
biodistribution: testes ([1]; 5 min after i.v. injection): 0.18 ± 0.042 % ID/g
biodistribution: thyroid ([1]; 5 min after i.v. injection): 0.64 ± 0.092% of total dose per organ
biodistribution: tumor ([1]; 5 min after i.v. injection): 0.27 ± 0.042 % ID/g
tumor:brain ratio ([1]; 5 min after i.v. injection): 3.2
biodistribution: blood ([1]; 30 min after i.v. injection): 0.28 ± 0.037 % ID/g
biodistribution: bone ([1]; 30 min after i.v. injection): 0.13 ± 0.027 % ID/g
biodistribution: brain ([1]; 30 min after i.v. injection): 0.04 ± 0.005 % ID/g
biodistribution: fat ([1]; 30 min after i.v. injection): 0.03 ± 0.012 % ID/g
biodistribution: heart ([1]; 30 min after i.v. injection): 0.13 ± 0.014 % ID/g
biodistribution: kidney ([1]; 30 min after i.v. injection): 6.76 ± 0.830 % ID/g
biodistribution: large intestine ([1]; 30 min after i.v. injection): 0.08 ± 0.060 % ID/g
biodistribution: liver ([1]; 30 min after i.v. injection): 0.58 ± 0.074 % ID/g
biodistribution: lung ([1]; 30 min after i.v. injection): 0.54 ± 0.211 % ID/g
biodistribution: muscle ([1]; 30 min after i.v. injection): 0.08 ± 0.020 % ID/g
biodistribution: pancreas ([1]; 30 min after i.v. injection): 0.50 ± 0.105 % ID/g
biodistribution: salivary gland ([1]; 30 min after i.v. injection): 0.20 ± 0.016 % ID/g
biodistribution: small intestine ([1]; 30 min after i.v. injection): 0.30 ± 0.154 % ID/g
biodistribution: spleen ([1]; 30 min after i.v. injection): 0.18 ± 0.004 % ID/g
biodistribution: testes ([1]; 30 min after i.v. injection): 0.08 ± 0.011 % ID/g
biodistribution: thyroid ([1]; 30 min after i.v. injection): 0.21 ± 0.023% of total dose per organ
biodistribution: tumor ([1]; 30 min after i.v. injection): 0.29 % ID/g and 0.29 ± 0.132 % ID/g
tumor:brain ratio ([1]; 30 min after i.v. injection): 8.8
biodistribution: blood ([1]; 60 min after i.v. injection): 0.14 ± 0.015 % ID/g
biodistribution: bone ([1]; 60 min after i.v. injection): 0.08 ± 0.007 % ID/g
biodistribution: brain ([1]; 60 min after i.v. injection): 0.02 ± 0.001 % ID/g
biodistribution: fat ([1]; 60 min after i.v. injection): 0.02 ± 0.002 % ID/g
biodistribution: heart ([1]; 60 min after i.v. injection): 0.08 ± 0.006 % ID/g
biodistribution: kidney ([1]; 60 min after i.v. injection): 2.39 ± 0.138 % ID/g
biodistribution: large intestine ([1]; 60 min after i.v. injection): 0.05 ± 0.002 % ID/g
biodistribution: liver ([1]; 60 min after i.v. injection): 0.48 ± 0.023 % ID/g
biodistribution: lung ([1]; 60 min after i.v. injection): 0.37 ± 0.100 % ID/g
biodistribution: muscle ([1]; 60 min after i.v. injection): 0.05 ± 0.006 % ID/g
biodistribution: pancreas ([1]; 60 min after i.v. injection): 0.43 ± 0.063 % ID/g
biodistribution: salivary gland ([1]; 60 min after i.v. injection): 0.15 ± 0.009 % ID/g
biodistribution: small intestine ([1]; 60 min after i.v. injection): 0.35 ± 0.015 % ID/g
biodistribution: spleen ([1]; 60 min after i.v. injection): 0.14 ± 0.002 % ID/g
biodistribution: testes ([1]; 60 min after i.v. injection): 0.05 ± 0.002 % ID/g
biodistribution: thyroid ([1]; 60 min after i.v. injection): 0.12 ± 0.010% of total dose per organ
biodistribution: tumor ([1]; 60 min after i.v. injection): 0.17 ± 0.009 % ID/g
tumor:brain ratio ([1]; 60 min after i.v. injection): 6.9
inhibition of uptake by ASC condition relative to the sodium control (9L gliosarcoma cells; neutral amino acid inhibitor assay, p<0.001): 36%
uptake mediated by system L or cationic amino acid transport systems (9L gliosarcoma cells; same uptake assays with inhibitors): did not demonstrate significant uptake
inhibition of uptake by ASC condition relative to the sodium control (9L gliosarcoma cells; second independent assay, p<0.01): 33%
percent uptake relative to control, Na RKH (9L gliosarcoma cells; sodium buffer, Arg/Lys/His 3.3 mM each (FIG. 4/6)): 82±4%
percent uptake relative to control, Na BCH (9L gliosarcoma cells; sodium buffer, BCH 10 mM, 30 sec uptake, neutral amino acid inhibitor assay (FIG. 3/5)): 110±11%
percent uptake relative to control, Na ASC (9L gliosarcoma cells; sodium buffer, 30 sec uptake, neutral amino acid inhibitor assay (FIG. 3/5)): 64±6%
percent uptake relative to control, Na ASC (9L gliosarcoma cells; sodium buffer, basic side chain amino acid inhibitor assay (FIG. 4/6)): 67±15%
percent uptake relative to control, Na Arg (9L gliosarcoma cells; sodium buffer, L-arginine 10 mM (FIG. 4/6)): 83±7%
percent uptake relative to control, Na His (9L gliosarcoma cells; sodium buffer, L-histidine 10 mM (FIG. 4/6)): 91±10%
percent uptake relative to control, Na Lys (9L gliosarcoma cells; sodium buffer, L-lysine 10 mM (FIG. 4/6)): 104±8%
percent uptake relative to control, Na MeAIB (9L gliosarcoma cells; sodium buffer, MeAIB 10 mM, 30 sec uptake, neutral amino acid inhibitor assay (FIG. 3/5)): 97±7%
percent uptake relative to control, Cho BCH (9L gliosarcoma cells; sodium-free choline buffer, BCH 10 mM, relative to sodium control (FIG. 3/5)): 95±4%
percent uptake relative to control, Cho sucrose (9L gliosarcoma cells; sodium-free choline buffer, sucrose 10 mM, relative to sodium control (FIG. 3/5)): 107±14%
